Reference: ChEMBL document CHEMBL4138123, “Design, synthesis and biological evaluation of novel pyrazolochalcones as potential modulators of PI3K/Akt/mTOR pathway and inducers of apoptosis in breast cancer cells” (Eur J Med Chem, 2017)

Legend:
Assay type in all cases: functional
[1] = tested on: SN12C; assay: Cytotoxicity against human SN12C cells assessed as cell growth at 0.01 uM after 48 hrs by sulforhodamine B assay relative to control; conditions: read-out: Activity
[2] = tested on: K562; assay: Cytotoxicity against human K562 cells assessed as cell growth at 0.01 uM after 48 hrs by sulforhodamine B assay relative to control; conditions: K562, 48 h, read-out: Activity
[3] = tested on: HCT-116; assay: Cytotoxicity against human HCT116 cells assessed as cell growth at 0.01 uM after 48 hrs by sulforhodamine B assay relative to control; conditions: HCT-116, 48 h, read-out: Activity
[4] = tested on: 786-0; assay: Cytotoxicity against human 786-0 cells assessed as growth inhibition after 48 hrs by sulforhodamine B assay; conditions: 786-0, 48 h
[5] = tested on: NCI-H522; assay: Cytotoxicity against human NCI-H522 cells assessed as cell growth at 100 uM after 48 hrs by sulforhodamine B assay relative to control; conditions: NCI-H522, 48 h, read-out: Activity
[6] = tested on: SF-268; assay: Cytotoxicity against human SF268 cells assessed as cell growth at 10 uM after 48 hrs by sulforhodamine B assay relative to control; conditions: SF-268, 48 h, read-out: Activity
[7] = tested on: MDA-MB-231; assay: Cytotoxicity against human MDA-MB-231 cells assessed as growth inhibition after 48 hrs by sulforhodamine B assay; conditions: MDA-MB-231, 48 h
[8] = tested on: ACHN; assay: Cytotoxicity against human ACHN cells assessed as cell growth at 0.01 uM after 48 hrs by sulforhodamine B assay relative to control; conditions: read-out: Activity
[9] = tested on: SW-620; assay: Cytotoxicity against human SW620 cells assessed as cell growth at 1 uM after 48 hrs by sulforhodamine B assay relative to control; conditions: SW-620, 48 h, read-out: Activity
[10] = tested on: UACC-257; assay: Cytotoxicity against human UACC257 cells assessed as cell growth at 0.01 uM after 48 hrs by sulforhodamine B assay relative to control; conditions: UACC-257, 48 h, read-out: Activity
[11] = tested on: MOLT-4; assay: Cytotoxicity against human MOLT4 cells assessed as growth inhibition after 48 hrs by sulforhodamine B assay; conditions: MOLT-4, 48 h; for CC50: read-out: LC50 (the source's name)
[12] = tested on: MCF7; assay: Cytotoxicity against human MCF7 cells assessed as cell growth at 100 uM after 48 hrs by sulforhodamine B assay relative to control; conditions: MCF7, 48 h, read-out: Activity
[13] = tested on: MDA-MB-435; assay: Cytotoxicity against human MDA-MB-435 cells assessed as cell growth at 0.1 uM after 48 hrs by sulforhodamine B assay relative to control; conditions: MDA-MB-435, 48 h, read-out: Activity
[14] = tested on: A549; assay: Cytotoxicity against human A549/ATCC cells assessed as cell growth at 1 uM after 48 hrs by sulforhodamine B assay relative to control; conditions: A549, 48 h, read-out: Activity
[15] = tested on: SF-539; assay: Cytotoxicity against human SF539 cells assessed as cell growth at 0.1 uM after 48 hrs by sulforhodamine B assay relative to control; conditions: SF-539, 48 h, read-out: Activity
[16] = tested on: SNB-19; assay: Cytotoxicity against human SNB19 cells assessed as cell growth at 0.01 uM after 48 hrs by sulforhodamine B assay relative to control; conditions: SNB-19, 48 h, read-out: Activity
[17] = tested on: SK-MEL-28; assay: Cytotoxicity against human SK-MEL-28 cells assessed as growth inhibition after 48 hrs by sulforhodamine B assay; conditions: SK-MEL-28, 48 h
[18] = tested on: UACC-62; assay: Cytotoxicity against human UACC62 cells assessed as growth inhibition after 48 hrs by sulforhodamine B assay; conditions: UACC-62, 48 h
[19] = tested on: HCC 2998; assay: Cytotoxicity against human HCC2998 cells assessed as cell growth at 10 uM after 48 hrs by sulforhodamine B assay relative to control; conditions: HCC 2998, 48 h, read-out: Activity
[20] = tested on: CAKI-1; assay: Cytotoxicity against human Caki1 cells assessed as cell growth at 10 uM after 48 hrs by sulforhodamine B assay relative to control; conditions: CAKI-1, 48 h, read-out: Activity
[21] = tested on: OVCAR-5; assay: Cytotoxicity against human OVCAR5 cells assessed as cell growth at 10 uM after 48 hrs by sulforhodamine B assay relative to control; conditions: OVCAR-5, 48 h, read-out: Activity
[22] = tested on: RXF 393; assay: Cytotoxicity against human RXF393 cells assessed as growth inhibition after 48 hrs by sulforhodamine B assay; conditions: RXF 393, 48 h
[23] = tested on: U-251; assay: Cytotoxicity against human U251 cells assessed as cell growth at 100 uM after 48 hrs by sulforhodamine B assay relative to control; conditions: U-251, 48 h, read-out: Activity
[24] = tested on: OVCAR-5; assay: Cytotoxicity against human OVCAR5 cells assessed as cell growth at 0.1 uM after 48 hrs by sulforhodamine B assay relative to control; conditions: OVCAR-5, 48 h, read-out: Activity
[25] = tested on: MDA-MB-231; assay: Cytotoxicity against human MDA-MB-231 cells assessed as cell growth at 1 uM after 48 hrs by sulforhodamine B assay relative to control; conditions: MDA-MB-231, 48 h, read-out: Activity
[26] = tested on: SF-539; assay: Cytotoxicity against human SF539 cells assessed as growth inhibition after 48 hrs by sulforhodamine B assay; conditions: SF-539, 48 h
[27] = tested on: HCC 2998; assay: Cytotoxicity against human HCC2998 cells assessed as cell growth at 100 uM after 48 hrs by sulforhodamine B assay relative to control; conditions: HCC 2998, 48 h, read-out: Activity
[28] = tested on: UO-31; assay: Cytotoxicity against human UO31 cells assessed as cell growth at 0.1 uM after 48 hrs by sulforhodamine B assay relative to control; conditions: UO-31, 48 h, read-out: Activity
[29] = tested on: RPMI-8226; assay: Cytotoxicity against human RPMI8226 cells assessed as cell growth at 0.1 uM after 48 hrs by sulforhodamine B assay relative to control; conditions: RPMI-8226, 48 h, read-out: Activity
[30] = tested on: NCI-H460; assay: Cytotoxicity against human NCI-H460 cells assessed as growth inhibition after 48 hrs by sulforhodamine B assay; conditions: NCI-H460, 48 h
[31] = tested on: NCI-H522; assay: Cytotoxicity against human NCI-H522 cells assessed as cell growth at 0.1 uM after 48 hrs by sulforhodamine B assay relative to control; conditions: NCI-H522, 48 h, read-out: Activity
[32] = tested on: SK-MEL-5; assay: Cytotoxicity against human SK-MEL-5 cells assessed as cell growth at 0.01 uM after 48 hrs by sulforhodamine B assay relative to control; conditions: SK-MEL-5, 48 h, read-out: Activity
[33] = tested on: OVCAR-3; assay: Cytotoxicity against human OVCAR3 cells assessed as growth inhibition after 48 hrs by sulforhodamine B assay; conditions: OVCAR-3, 48 h
[34] = tested on: CCRF-CEM; assay: Cytotoxicity against human CCRF-CEM cells assessed as cell growth at 100 uM after 48 hrs by sulforhodamine B assay relative to control; conditions: read-out: Activity

`COc1cc(C(=O)/C=C/c2cc(-c3cc(OC)c(OC)c(OC)c3)n[nH]2)cc(OC)c1OC` showed a growth at 0.01 µM [1] of 96%, a growth at 0.01 µM [2] of 99% and a growth at 0.01 µM [3] of 97%. For the same molecule, the LC50 [4] was 6.76 µM, the TGI [4] was 3.25 µM and the growth at 100 µM [5] was -98%. It also gave a growth at 10 µM [6] of -45%, an LC50 [7] of 9.51 µM and a TGI [7] of 3.8 µM. For the same molecule, the growth at 0.01 µM [8] was 103%, the growth at 1 µM [9] was 85% and the growth at 0.01 µM [10] was 94%. It also gave a TGI [11] of 8.95 µM, a CC50 [11] greater than 100 µM and a growth at 100 µM [12] of -72%. The growth at 0.1 µM [13] was 94%, the growth at 1 µM [14] was 84% and the growth at 0.1 µM [15] was 91%. It also gave a growth at 0.01 µM [16] of 92%, an LC50 [17] of 6.07 µM and a TGI [17] of 3.33 µM. The LC50 [18] was 7.6 µM, the TGI [18] was 3.68 µM and the growth at 10 µM [19] was -87%. For the same molecule, the growth at 10 µM [20] was 4%, the growth at 10 µM [21] was -91% and the LC50 (concentration killing 50% of cells) [22] was 5.68 µM. The TGI [22] was 2.67 µM, the growth at 100 µM [23] was -99% and the growth at 0.1 µM [24] was 101%. It also gave a growth at 1 µM [25] of 73%, an LC50 (concentration killing 50% of cells) [26] of 6.23 µM and a TGI [26] of 2.83 µM. For the same molecule, the growth at 100 µM [27] was -89%, the growth at 0.1 µM [28] was 90% and the growth at 0.1 µM [29] was 83%. For the same molecule, the LC50 [30] was 9.91 µM, the TGI [30] was 4.33 µM and the growth at 0.1 µM [31] was 103%. For the same molecule, the growth at 0.01 µM [32] was 96%, the LC50 [33] was 5.79 µM and the TGI [33] was 3.18 µM. It also gave a growth at 100 µM [34] of 2%.
`COc1cc2c(cc1OC)C(=O)/C(=C/c1cc(-c3ccc4c(c3)OCO4)n[nH]1)C2` was tested, and the growth at 0.01 µM [1] was 95%, the growth at 0.01 µM [2] was 97% and the growth at 0.01 µM [3] was 105%. The GI50 [4] was 1.61 µM, the LC50 [4] was 5.54 µM and the TGI [4] was 2.99 µM. For the same molecule, the growth at 100 µM [5] was -92%, the growth at 10 µM [6] was -75% and the GI50 [7] was 1.66 µM. It also gave an LC50 [7] of 6.18 µM, a TGI [7] of 3.2 µM and a growth at 0.01 µM [8] of 104%. For the same molecule, the growth at 1 µM [9] was 66%, the growth at 0.01 µM [10] was 93% and the GI50 [11] was 2.57 µM. It also gave a TGI [11] of 6.97 µM, a CC50 [11] greater than 100 µM and a growth at 100 µM [12] of -72%. For the same molecule, the growth at 0.1 µM [13] was 96%, the growth at 1 µM [14] was 83% and the growth at 0.1 µM [15] was 92%. The growth at 0.01 µM [16] was 97%, the GI50 [17] was 1.89 µM and the LC50 [17] was 6.09 µM. The TGI [17] was 3.4 µM, the GI50 [18] was 1.63 µM and the LC50 [18] was 5.66 µM. For the same molecule, the TGI [18] was 3.04 µM, the growth at 10 µM [19] was -88% and the growth at 10 µM [20] was -87%. For the same molecule, the growth at 10 µM [21] was -92%, the GI50 [22] was 1.54 µM and the LC50 (concentration killing 50% of cells) [22] was 6.62 µM. For the same molecule, the TGI [22] was 3.19 µM, the growth at 100 µM [23] was -94% and the growth at 0.1 µM [24] was 92%. For the same molecule, the growth at 1 µM [25] was 88%, the GI50 [26] was 1.27 µM and the LC50 (concentration killing 50% of cells) [26] was 5.22 µM. The TGI [26] was 2.57 µM, the growth at 100 µM [27] was -94% and the growth at 0.1 µM [28] was 85%. The growth at 0.1 µM [29] was 93%, the GI50 [30] was 1.68 µM and the LC50 [30] was 8.57 µM. It also gave a TGI [30] of 3.79 µM, a growth at 0.1 µM [31] of 89% and a growth at 0.01 µM [32] of 95%. For the same molecule, the GI50 [33] was 1.41 µM, the LC50 [33] was 5.58 µM and the TGI [33] was 2.8 µM. The growth at 100 µM [34] was -38%.
